Assay results as given in PMC12328218 (Nature, 2025).
Where two headings read alike, the source gives them in different places.

Key:
Type in all cases: cell-based, Mycobacterium tuberculosis
[1] = tested on: JNJ-6640-treated M. tuberculosis
[2] = tested on: M. tuberculosis H37Rv CRISPRi PurF low knockdown strain; test: microbe, parasite or virus in culture
[3] = tested on: M. tuberculosis CRISPRi purF knockdown strains

For `O=c1[nH]c(=O)c2nc[nH]c2[nH]1` [Xanthine], the “effect of nucleobase addition on JNJ-6640-treated M. tuberculosis” value (from here on “effect of nucleobase addition”) [1] was “no substantial effect”.
In the case of `COc1nc2ccc(Br)cc2cc1[C@@H](c1ccccc1)[C@@](O)(CCN(C)C)c1cccc2ccccc12` [Bedaquiline], the EC50 [2] is reported as 44 nM, the “change in susceptibility following purF transcript knockdown” value [2] is reported as “no change” and the EC50 ([2]; Mycobacterium tuberculosis, H37RV) is reported as 61 nM.
In the case of `O=c1[nH]cnc2nc[nH]c12` [Hypoxanthine], the “concentration partially rescuing inhibition of de novo purine biosynthesis” value [3] is reported as “exceeding 0.1 mM”, the “effect of nucleobase addition” value [1] is reported as “rescue” and the “rescue of JNJ-6640 activity” value [1] is reported as “rescues JNJ-6640 activity”.
With `Nc1nc2nc[nH]c2c(=O)[nH]1` [Guanine] the “effect of nucleobase addition” value [1] was “no substantial effect”.
With `Nc1ncnc2[nH]cnc12` [Adenine] the “effect on rescue of purF knockdown” value [3] was “limited effect” and the “effect of nucleobase addition” value [1] was “no substantial effect”.
